The values below come from US20050113577A1, “Solid forms of slats with tyrosine kinase activity” (priority 2002, published 2005).

Usually Solubility stands for how much of the substance goes into solution per volume. A low value points to little dissolved substance.

Data set [1] in a line: Hygroscopicity, step isotherm program 0 to 95% RH. The class given is physicochemical. The following applies: 25° C. As to the method: The hygroscopicity of Form A was determined at 25° C. using a step isotherm program for relative humidities from 0 to 95% RH under nitrogen flow.
Data set [2] can be described thus: Solubility in various aqueous solvent systems measured for 20 hours. The format is physicochemical. How it is done:
[table] The solubility of Form A in various aqueous solvent systems was measured for a period of 20 hours.

Data set [3] in a line: Solubility in water and organic solvents at room temperature (suspended for 7 days). The class given is physicochemical. How it is done:
[table] The solubility of Form A HCl Salt at room temperature was determined in water and several organic solvents that can be used in pharmaceutical processing.

Data set [4] can be described thus: Solid form stability in suspension/slurry (XRPD). The format is physicochemical. How it is done:
An X-ray powder diffraction pattern of Form A is indicative of a crystalline material with multiple diffraction peaks between 5° and 30° 2-theta.

The nature of data set [5]: Partition coefficient between 1-octanol and water. The format is physicochemical. The following applies: 1-octanol/water; pH (equilibrium) 3.8 (native); 0.033 mg/mL in aqueous phase at start. As to the method:
Partition coefficient of Form A between I-octanol and water were determined at the native pH of the HCl Salt (Table III).

A further data set deals with T1, human KDR (Homo sapiens, UniProt P35968).
T1 construct: cloning the cytoplasmic domain of the KDR kinase as an in frame fusion at the carboxy terminus of the GST gene; made in house; host or cells: Spodoptera frugiperda (Sf21) insect cells, baculovirus vector pAcG2T
Briefly: VEGF Receptor Kinase Assay. Conditions: tested by the assays described (KDR, HUVEC, Flt-1, Flt-3); no values given. The class given is biochemical. How it is done: Other assays are known in the literature and could be readily performed by those of skill in the art (see, for example, Dhanabal et al., Cancer Res. 59:189-197; Xin et al., J. Biol. Chem. 274:9116-9121; Sheu et al., Anticancer Res. 18:4435-4441; Ausprunk et al., Dev. Biol. 38:237-248; Gimbrone et al., J. Natl. Cancer Inst. 52:413-427; Nicosia et al., In Vitro 18:538-549).
VEGF receptor kinase activity is measured by incorporation of radio-labeled phosphate into polyglutarnic acid, tyrosine, 4:1 (pEY) substrate. The phosphorylated pEY product is trapped onto a filter membrane and the incorporation of radio-labeled phosphate quantified by scintillation counting.
The intracellular tyrosine kinase domains of human KDR (Tennan, B. I. et al. Oncogene (1991) vol. 6, pp. 1677-1683.) and Flt-1 (Shibuya, M. et al. Oncogene (1990) vol. 5, pp. 519-524) were cloned as glutathione S-transferase (GST) gene fusion proteins. This was accomplished by cloning the cytoplasmic domain of the KDR kinase as an in frame fusion at the carboxy terminus of the GST gene. Soluble recombinant GST-kinase domain fusion proteins were expressed in Spodoptera frugiperda (Sf21) insect cells (Invitrogen) using a baculovirus expression vector (pAcG2T, Pharmingen). […]

T1 sequence (P35968 786-1356 limits assumed): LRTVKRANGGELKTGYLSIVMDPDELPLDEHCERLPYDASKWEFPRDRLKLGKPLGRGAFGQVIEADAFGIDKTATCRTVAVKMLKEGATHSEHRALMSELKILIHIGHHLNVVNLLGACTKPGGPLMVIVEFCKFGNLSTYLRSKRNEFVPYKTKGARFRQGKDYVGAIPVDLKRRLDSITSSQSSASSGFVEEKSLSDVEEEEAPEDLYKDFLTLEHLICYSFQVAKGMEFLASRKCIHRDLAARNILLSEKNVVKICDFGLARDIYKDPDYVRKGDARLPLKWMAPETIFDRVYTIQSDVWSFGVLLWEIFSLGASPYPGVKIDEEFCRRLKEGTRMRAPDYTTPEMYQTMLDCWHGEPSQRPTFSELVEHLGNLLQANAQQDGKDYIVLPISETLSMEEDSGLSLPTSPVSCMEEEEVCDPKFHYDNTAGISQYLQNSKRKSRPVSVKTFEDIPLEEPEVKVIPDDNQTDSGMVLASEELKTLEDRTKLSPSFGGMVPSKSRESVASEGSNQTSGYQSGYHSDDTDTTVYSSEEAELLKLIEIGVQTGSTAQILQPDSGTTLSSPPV

Consider `CS(=O)(=O)N1CCN(Cc2ccc3[nH]c(-c4cc5ccccc5[nH]c4=O)cc3c2)CC1.Cl` [Form A, hydrochloride salt of 3-[5-(4-methanesulfonyl-piperazin-1-ylmethyl)-1H-indol-2-yl]-1H-quinolin-2-one], for which the Hygroscopicity entry in data set [1] (0 to 95% RH under nitrogen flow) was “not hygroscopic”. Also, the Moisture reversibly adsorbed result in data set [1] (75% RH) is listed as “approximately 1%”. For the same molecule, the Solubility in data set [2] (10% EtOH) worked out at 380 µg/mL; in data set [2] (10% IPA), 470 µg/mL; in data set [2] (25% EtOH) it was 1060 µg/mL; in data set [2] (25% IPA) it was 1780 µg/mL; in data set [2] (50% Acetone), 10660 µg/mL; in data set [2] (50% EtOH), 3820 µg/mL. Further, the Solubility in data set [2] (50% IPA) stood at 4390 µg/mL; in data set [2] (75% EtOH), 3860 µg/mL; in data set [2] (75% IPA), 2290 µg/mL; in data set [2] (Acetone), 61 µg/mL; in data set [3] (Aqueous ETOH (50%)), 4340 µg/mL; in data set [3] (Aqueous IPA (50%)), 3990 µg/mL. Besides, the Solubility was 130 µg/mL in data set [3] (Ethanol), 57 µg/mL in data set [3] (Isopropanol) and 260 µg/mL in data set [3] (Water). In addition, in data set [4] (suspended in aqueous ethanol for seven days at RT), the “Change in crystal structure (XRPD)” value is recorded as “No change in crystal structure”. Besides, the “log P (log Ko/w)” value in data set [5] is −4.34.
Consider `CS(=O)(=O)N1CCN(Cc2ccc3[nH]c(-c4cc5ccccc5[nH]c4=O)cc3c2)CC1` [Compound 1-11, 3-[5-(4-Methanesulfonyl-piperazin-1-ylmethyl)-1H-indol-2-yl]-1H-quinolin-2-one], for which the kinase inhibitory activity result at human KDR is given as “inhibits the kinase KDR”.
As for `CS(=O)(=O)N1CCN(Cc2ccc3[nH]c(-c4cc5ccccc5[nH]c4=O)cc3c2)CC1.Cl` [Form E, hydrochloride salt of 3-[5-(4-methanesulfonyl-piperazin-1-ylmethyl)-1H-indol-2-yl]-1H-quinolin-2-one], the “Solid form after slurry” value in data set [4] (slurry in water at room temperature for seven days) is “provided Form D crystalline solid”.
